Tests used:
GCP II [1] = target: T1, GCP II (Mus musculus, UniProt O35409); test: Binding specificity: blocking of ^11C-MCG kidney uptake by pretreatment with blocker; format: in vivo, mice; details: for reduction in ^11C-MCG uptake: mouse kidney, pretreatment 5 minutes prior with unlabeled MCG (up to 1 mg/kg) or PMPA (1 mg/kg), sacrifice 30 minutes
T1 construct: from tissue; host or cells: kidney of live male CD-1 mice
Procedure: ANOVA, which was used in rodent radiotracer uptake studies, was performed with StatView SE Graphic software, version 1.03 (SAS Institute, Cary, N.C.). For the Students t test, p<0.01 was considered to indicate statistical significance.

GCP II [2] = test: Baboon PET study of renal cortical uptake with tracer kinetic modeling; format: in vivo, baboon (Papio anubis)
Procedure: (§1) A dynamic PET study of the renal cortical uptake and clearance of ^11C-MCG was performed in an adult male baboon (Papio anubis; body weight, approximately 30 kg). Before each study, two intraveneous catheters and a single arterial catheter were placed for infusion of anesthesia, injection of radiotracer and sampling of arterial blood, respectively. The animal was initially anestitized intramuscurally with 8-10 mg/kg alfadolone and alfaxalone acetate (Saffan; Pitman-Moore, Middlesex, UK) and was intubated. Anesthesia was maintained throughout the study by a continuous intravenous infusion drip of 6-9 mg/kg/h of Saffan. The animal was secured to the PET bed using an individually fitted thermoplastic mask. Pulse, blood pressure, and oxygen saturation were monitored continuously during the studies. Blood oxygen saturation was always maintained above 85%. After the animal was positioned in the PET scanner, transmission scanning was performed with a 370 MBq (10 mCi) ^68Ga source to allow for attenuation correction. PET scanning was started immediately after intravenous injection of 370 MBq (10 mCi) of high-specific-acitivtiy ^11C-MCG (corresponding, at a maximum, to 0.02 μg/kg). Thirty-five simultaneous, contiguous (18 directed planes, 17 cross planes, z-axis 14.45 cm), sequential quantitative tomographic slices fo […] were obtained with a GE Advance PET tomograph (General Electric Medical Systems, Milwaukee, Wis.) in the high-resolution mode (4.25-5.00 mm ful width at half maximum within the slice) over a 90 minute period. The animal was positioned so that the renal cortex was in the filed of view. Approximately 30 arterial blood samples (for radioassay and protein binding) were obtained over 90 minutes. […]
A one-tissue, three parameter (K1=influx, k2 efflux, DV=distribution volume) model was applied to the TACs and to the metabolite-corrected renal uptake curves to describe tracer kinetics with DV (=K1/k2 in ml/ml) used as anindex of receptor density. The effect of blocking with PMPA was evaluated by changes in the Dva nd calculated as 100×(DVbaseline−DVblocker)/DVbaseline. […]

[3] = Metabolism of ^11C-MCG in baboon arterial plasma; format: in vivo, baboon (Papio anubis)
Procedure: as §1, with “PET scanning was started immediately after intravenous injection of 370 MBq (10 mCi) of high-specific-acitivtiy ^11C-MCG (corresponding, at a maximum, to 0.02 μg/kg).” left out, “period.” for “period. The animal was positioned so that the renal cortex was in the filed of view. Approximately 30 arterial blood samples (for radioassay and protein binding) were obtained over 90 minutes.”

[4] = Metabolism studies of ^11C-MCG in mice (blood and kidney, HPLC); details: mice in vivo, n=2
Procedure: At different times after injection of ^11C-MCG into mice, blood and kidneys were collected to determine the rate of metabolism of the radiotracer. Heparinized blood (0.2-0.3 mL) was diluted to 0.9 mL with cold 0.9% saline and acidified to 0.5 N by the rapid addition of 0.1 mL of 5 N perchloric acid. Following 5 minutes on ice, the precipitate was removed by centrifugation to yield an acid-soluble supernatant that was analyzed by HPLC. Similarly, an acid extract of mouse kidney was obtained from an initial homogenate of two kidneys in 0.8 mL of cold water.
The acid extracts were loaded onto a 4.6×250 mm Prodigy ODS-3 column (Phenomenex) eluted with 10% acetonitrile in 50 mM sodium phosphate buffer pH 2.5 at a flow rate of 2 mL/min. Radioactivity was measured by a dual BGO flow detector and the chromatograph analyzed by Laura software (Bioscan, Washington, D.C.). ^11C-MCG eluted after 4.0 minutes with a minor, earlier eluting product at 2.5 minutes.

LogP (hydrophilicity) = format: physicochemical
[5] = in vivo
Procedure: Male CD-1 mice (Charles River, Wilmington, Mass.) weighing between 20 and 25 g were used and received an injection of 3.7 MBq (100 μCi) of ^11C-MCG through the tail vein. That amounted to, at a maximum, 0.27 μg/kg. For kinetic studies, mice were killed by cervical dislocation at 5, 15, 30, 60, and 120 min after injection fo the radiotracer in 200 μL of saline vehicle. The brains were removed and placed on ice, and the cerebellum, olfactory bulb, hypothalamus, hippocampus, striatum, parietal cortex, brainstem, and thalamus were harvested. Kidneys, blood, fat, muscle, small intestine, and prostate were also harvested. The tissue samples were weighted, and their radioactivity content was determined in an automated γ counter (1282 Compugamma CS: Pharmacia/LKB Nuclear, Gaithersburg Md.). Aliquots of the injected tracer were counted along with the samples and served as standards for the calculation of percentage injected dose per gram of tissue (% ID/g). To assess binding specificity, groups of three mice each were pretreated with the high affinity GCP II inhibitor PMPA at does of 1, 10 and 100 mg/kg in 200 μL of saline vehicle 5 minutes prior to ^11C-MCG injection. In an additional binding specificity study, animals were pretreated similarly with unlabeled MCG standard at doses of 5, 50, 100, 500, and 1000 μg/kg before ^11C-MCG injection

T1 sequence (O35409 whole entry): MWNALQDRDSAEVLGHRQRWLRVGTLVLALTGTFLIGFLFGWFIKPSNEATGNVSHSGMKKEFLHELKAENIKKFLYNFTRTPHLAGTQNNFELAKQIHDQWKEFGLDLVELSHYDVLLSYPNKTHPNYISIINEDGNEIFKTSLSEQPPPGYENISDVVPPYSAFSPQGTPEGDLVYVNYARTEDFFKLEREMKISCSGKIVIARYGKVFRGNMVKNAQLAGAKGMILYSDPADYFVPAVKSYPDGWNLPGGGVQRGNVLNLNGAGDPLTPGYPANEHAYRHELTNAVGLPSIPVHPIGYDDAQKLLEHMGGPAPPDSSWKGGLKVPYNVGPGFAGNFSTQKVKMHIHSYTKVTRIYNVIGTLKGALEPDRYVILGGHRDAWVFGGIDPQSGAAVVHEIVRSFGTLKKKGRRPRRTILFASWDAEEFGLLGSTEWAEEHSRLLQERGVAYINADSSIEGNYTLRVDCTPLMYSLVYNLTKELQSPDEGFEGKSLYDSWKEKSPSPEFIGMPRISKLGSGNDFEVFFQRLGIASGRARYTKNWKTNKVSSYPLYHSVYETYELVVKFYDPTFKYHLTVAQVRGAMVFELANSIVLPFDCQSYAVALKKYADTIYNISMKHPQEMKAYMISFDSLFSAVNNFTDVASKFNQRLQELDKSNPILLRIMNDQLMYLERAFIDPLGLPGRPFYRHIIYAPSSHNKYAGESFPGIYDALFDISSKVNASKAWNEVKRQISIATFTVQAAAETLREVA

| SMILES | decreasing ^11C-MCG uptake in mouse kidney (FIG. 1) (GCP II [1]; increasing concentration of unlabeled MCG blocker, up to) | reduction in ^11C-MCG uptake (GCP II [1]) | reduction in the DV of ^11C-MCG (GCP II [2]; baboon renal cortex, pretreatment with 3 mg/kg PMPA) [%] | peak metabolism ([3]; baseline, 90 minutes after injection) [%] | peak metabolism ([3]; blocker (2 mg/kg PMPA) 10 minutes prior to tracer, 90 minutes post injection) [%] | DV (distribution volume) (GCP II [2]; baboon renal cortex, after pretreatment with 3 mg/kg PMPA) [mL/mL] | DV (distribution volume) (GCP II [2]; male, baboon (Papio anubis), in vivo) [mL/mL] | metabolism in kidney ([4]; 30 minute time point) [%] | metabolism in plasma ([4]; 30 minute time point) [%] | metabolism in plasma ([4]; 60 minutes) | metabolism in kidney ([4]; at most over 5-60 minutes) [%] | logP (LogP (hydrophilicity)) | Kidney/blood ratio ([5]; male, CD-1, mouse, 30 min) | Prostate uptake ([5]; male, CD-1, mouse, 30 min) [% ID/G] | kidney/muscle ratio ([5]; male, CD-1, mouse, 30 min) | uptake in brainstem ([5]; male, CD-1, mouse, 30 min) [% ID/g] | uptake in cerebellum ([5]; male, CD-1, mouse, 30 min) [% ID/g] | uptake in cortex ([5]; male, CD-1, mouse, 30 min) [% ID/g] | uptake in hippocampus ([5]; male, CD-1, mouse, 30 min) [% ID/g] | Brain uptake ([5]; mouse) |
| --- | --- | --- | --- | --- | --- | --- | --- | --- | --- | --- | --- | --- | --- | --- | --- | --- | --- | --- | --- | --- |
| CSCC(NC(=O)NC(CCC(=O)O)C(=O)O)C(=O)O (stereo not drawn) [MCG] | approximately seven fold | approximately sixfold |  |  |  |  |  |  |  |  |  |  |  |  |  |  |  |  |  |  |
| O=C(O)CCC(CP(=O)(O)O)C(=O)O (stereo not drawn) [PMPA, reference compound] |  | approximately sixfold | 37 |  |  |  |  |  |  |  |  |  |  |  |  |  |  |  |  |  |
| [11CH3]SC[C@H](NC(=O)N[C@@H](CCC(=O)O)C(=O)O)C(=O)O [^11C-MCG, 2-[3-(1-Carboxy-2-^11C-methylsulfanyl-ethyl)-ureido]-pentanedioic acid] |  |  |  | 9.0 | 4.0 | 0.878 | 1.38 | 2.0 | 3.5 | at most 9.2% | ≤ 10.4 | -0.235 | 30 | 1.55±1.01 | 73 | 0.12±0.03 | < 0.1 | < 0.1 | < 0.1 | low |
